# Test results as given in BindingDB's records for doi:10.1021/cb400452z (2013).
# Columns and labels:
# [1] = biological target: T1, 3-phosphoinositide-dependent protein kinase 1 (Homo sapiens, UniProt O15530); assay: AlphaScreen Assay; conditions: pH 7.4; room temperature
# T1 sequence (O15530 whole entry): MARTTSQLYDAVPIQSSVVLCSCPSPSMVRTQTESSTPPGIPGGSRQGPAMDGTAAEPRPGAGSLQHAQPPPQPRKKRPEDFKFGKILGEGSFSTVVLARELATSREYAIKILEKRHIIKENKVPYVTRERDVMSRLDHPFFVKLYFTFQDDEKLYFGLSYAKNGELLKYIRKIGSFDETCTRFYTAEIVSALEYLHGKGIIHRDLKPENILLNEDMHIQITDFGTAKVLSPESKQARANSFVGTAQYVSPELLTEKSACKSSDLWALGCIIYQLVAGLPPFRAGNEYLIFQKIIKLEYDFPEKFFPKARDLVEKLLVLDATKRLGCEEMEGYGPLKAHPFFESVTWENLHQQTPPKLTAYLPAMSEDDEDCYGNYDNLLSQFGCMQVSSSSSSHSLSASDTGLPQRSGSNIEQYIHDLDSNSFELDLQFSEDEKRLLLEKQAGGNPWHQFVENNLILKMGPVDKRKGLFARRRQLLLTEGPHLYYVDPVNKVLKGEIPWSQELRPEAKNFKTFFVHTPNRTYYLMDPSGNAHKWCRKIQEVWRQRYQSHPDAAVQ
# Experimental: (§1) The AlphaScreen Assay (Perkin Elmer) was performed according to the manufacturer's protocol in 384-well microtiter plates. Incubations were performed in white 384-well microtiter plates containing 20uL of a reaction mix (50mM Tris-HCl pH 7.4, 100mM NaCl, 1mM dithiotreitol, 0.01% (v/v) Tween-20, 0.1% (w/v) BSA, 1mM DMSO, 100nM His-CaPkh2 or 100nM His-PDK1, 50nM Biotin-PIFtide, and the indicated concentrations of unlabeled PIF-tide or small compounds) and 5uL of beads. 5uL of beads solution containing nickel chelate-coated acceptor beads and streptavidin-coated donor beads (20ug/mL final concentrations) was added to the reaction mix. The reaction mix and the beads were incubated in the dark for 45 min at RT and the emission of light from the acceptor beads was measured in the EnVision reader (Perkin Elmer) and analyzed using the GraphPad Prism software.
# [2] = biological target: T2, Serine/threonine-protein kinase PKH2 [1-944] (Candida albicans (strain SC5314 / ATCC MYA-2876), UniProt Q5A3P6); assay: AlphaScreen Assay; conditions: pH 7.4
# T2 construct: 1-944
# T2 sequence (Q5A3P6 whole entry): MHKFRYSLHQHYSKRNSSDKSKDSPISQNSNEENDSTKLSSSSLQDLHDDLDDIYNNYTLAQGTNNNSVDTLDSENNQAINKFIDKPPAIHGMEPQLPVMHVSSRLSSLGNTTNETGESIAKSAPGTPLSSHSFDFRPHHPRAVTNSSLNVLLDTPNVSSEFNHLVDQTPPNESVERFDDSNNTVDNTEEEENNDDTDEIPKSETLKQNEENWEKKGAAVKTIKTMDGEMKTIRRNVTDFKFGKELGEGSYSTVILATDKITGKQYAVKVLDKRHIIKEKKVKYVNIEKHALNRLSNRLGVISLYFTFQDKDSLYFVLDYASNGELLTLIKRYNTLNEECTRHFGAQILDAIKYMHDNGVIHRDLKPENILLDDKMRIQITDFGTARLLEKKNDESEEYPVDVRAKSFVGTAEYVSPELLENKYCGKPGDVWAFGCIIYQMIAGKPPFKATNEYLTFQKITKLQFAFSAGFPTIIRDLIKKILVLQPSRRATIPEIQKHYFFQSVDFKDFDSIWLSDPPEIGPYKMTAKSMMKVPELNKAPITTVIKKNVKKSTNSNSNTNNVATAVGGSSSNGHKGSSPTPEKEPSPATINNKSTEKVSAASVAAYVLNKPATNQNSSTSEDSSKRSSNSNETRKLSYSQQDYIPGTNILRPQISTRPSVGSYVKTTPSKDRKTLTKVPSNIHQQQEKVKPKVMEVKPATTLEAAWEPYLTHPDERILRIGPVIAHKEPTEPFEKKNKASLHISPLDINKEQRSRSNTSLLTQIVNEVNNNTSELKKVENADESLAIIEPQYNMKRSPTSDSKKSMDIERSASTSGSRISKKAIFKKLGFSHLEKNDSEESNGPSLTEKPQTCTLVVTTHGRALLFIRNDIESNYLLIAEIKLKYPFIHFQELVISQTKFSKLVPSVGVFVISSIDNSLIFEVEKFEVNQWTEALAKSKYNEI
# Experimental: as §1
# [3] = biological target: T1, 3-phosphoinositide-dependent protein kinase 1; assay: Protein Kinase Activity Assay; conditions: pH 7.4; 0 °C
# Experimental: (§2) A 20ul mix containing 50mM Tris pH 7.5, 0.05mg/ml BSA, 0.1% β-mercaptoethanol, 10mM MgCl2, 100μM [γ-P32]ATP (5-50cpm/pmol), 0.003% Brij, 150-500ng PDK1 or CaPkh2, and T308tide (from 0.1 to 1mM) was pre-incubated at room temperature (22¿C) for 15 minutes. The kinase reaction was initiated by the addition of the ATP-Mg mixture, followed by the addition of 5μl phosphoric acid (final concentration 0.01%) to stop the reaction. The PDK1 activity assay was performed in a 96 well format and 4μl aliquots spotted on p81 phosphocellulose papers (Whatmann) using ep motion 5070 (Eppendorf), washed in 0.01% phosphoric acid, dried, and then exposed and analyzed using PhophoImager technology (FLA-9000 Starion, Fujifilm). The specific activity of CaPkh2 and PDK1 was estimated using 100μM T308tide.
# [4] = biological target: T2, Serine/threonine-protein kinase PKH2 [1-944]; assay: Protein Kinase Activity Assay; conditions: pH 7.4; 0 °C
# Experimental: as §2
Compound,EC50 [1] [µM],EC50 ([2]; room temperature) [µM],EC50 [2] [µM],IC50 [3] [µM],IC50 [4] [µM]
O=C(CC(c1ccccc1)C(C(=O)O)C(=O)O)c1ccc(Cl)cc1 (stereo not drawn) [PS182],26,66,–,–,–
O=C(C[C@@H](c1ccccc1)C(C(=O)O)C(=O)O)c1ccc(C(F)(F)F)cc1,39,60,–,–,–
O=C(O)CSC(CC(=O)c1ccc(Cl)cc1)c1ccccc1Sc1ccc(Cl)cc1 (stereo not drawn) [PS77],–,–,44,38,17
O=C(O)CSC(CC(=O)c1ccc(Cl)cc1)c1ccccc1 (stereo not drawn),–,85,–,–,–
